Structures can show the parent of a compound that is named as a salt. A value given as a limit tells only on which side of the number the result lay.

For orientation: melting point means the temperature, or range, at which the solid turns liquid. With `Fc1ccc(-c2c[nH]c(C3CCCCN3Cc3ccccc3)n2)cc1` (stereo not drawn) [Example 17, 1-benzyl-2-[4-(4-fluorophenyl)-1H-imidazol-2-yl]piperidine], the melting point turned out to be 181.6 °C.
With `c1ccc(CN2CCC(c3nc(-c4ccc(-c5ccccc5)cc4)c[nH]3)CC2)cc1` [Example 12, 1-benzyl4-[4-(1,1′-biphenyl-4-yl)-1H-imidazol-2-yl]piperidine], the melting point was 110 to 112 °C.
`CCCCOC(=O)N1CCC(c2nc(-c3ccc(C(C)(C)C)cc3)c[nH]2)CC1` [Example 13, butyl 4-[4-(4-tert-butylphenyl)-1H-imidazol-2-yl]piperidine-1-carboxylate]: the melting point was in the range of 98 to 100 °C.
The result for `COc1ccc(-c2c[nH]c(C3CCNCC3)n2)cc1` (as salt: hydrochloride) reads 272 to 273 °C; that for `Fc1ccc(-c2c[nH]c(C3CCCCN3)n2)cc1` (stereo not drawn) (as salt: hydrochloride), 222 to 223 °C; that for `CCCCOC(=O)N1CCCCC1c1nc(-c2ccc(-c3ccccc3)cc2)c[nH]1` (stereo not drawn) [Example 23, butyl 2-[4-(1,1′-biphenyl-4-yl)-1H-imidazol-2-yl]piperidine-1-carboxylate], 166 to 167 °C.
`CCCCOC(=O)N1CCC(c2nc(-c3ccc(-c4ccccc4)cc3)c[nH]2)CC1` [Example 20, butyl 4-[4-(1,1′-biphenyl-4-yl)-1H-imidazol-2-yl]piperidine-1-carboxylate] returned a melting point of 73 to 74 °C.
The result for `CC(C)(C)OC(=O)N1CCC(c2nc(-c3ccc(F)cc3)c[nH]2)CC1` reads 180 to 182 °C.
The result for `CCCCCCN1CCC(c2nc(-c3ccc(-c4ccccc4)cc3)c[nH]2)CC1` [Example 19, 4-[4-(1,1′-biphenyl-4-yl)-1H-imidazol-2-yl]-1-hexylpiperidine] reads 138 to 139 °C; that for `CCCCOC(=O)N1CCCC(c2nc(-c3ccc(F)cc3)c[nH]2)C1` (stereo not drawn), 96.5 °C; that for `c1ccc(-c2ccc(-c3c[nH]c(C4CCCNC4)n3)cc2)cc1` (stereo not drawn) (as salt: hydrochloride) [Example 22, 3-[4-(1,1′-biphenyl-4-yl)-1H-imidazol-2-yl]piperidine], 226 to 227 °C.
`CCCCOC(=O)N1CCC(c2nc(-c3ccc(OC)cc3)c[nH]2)CC1` [Example 26, butyl 4-[4-(4-methoxyphenyl)-1H-imidazol-2-yl]piperidine-1-carboxylate] yielded a melting point of 48 to 50 °C.
The result for `CCCCOC(=O)N1CCCC(c2nc(-c3ccc(-c4ccccc4)cc3)c[nH]2)C1` (stereo not drawn) [Example 24, butyl 3-[4-(1,1′-biphenyl-4-yl)-1H-imidazol-2-yl]piperidine-1-carboxylate] reads 116 to 117 °C; that for `Fc1ccc(-c2c[nH]c(C3CCNCC3)n2)cc1` (as salt: hydrochloride), above 260 °C.
The result for `CCCCOC(=O)N1CCCCC1c1nc(-c2ccc(F)cc2)c[nH]1` (stereo not drawn) reads 157.4 °C.

Values taken from patent US20040077640A1 (priority 2000, published 2004).
